Experimental data: US6300471A, “FSH-releasing peptides” (Board of Supervisors of Louisiana State University and …, priority 1998, dated 2001)
Entries after “also recorded” stand apart in the source; their conditions may differ. Where two headings read alike, the source gives them in different places. Where a SMILES comes first, the peptide text is derived from it. [ ]: non-standard residue; d: D form. pGlu = O=C1CC[C@@H](C(=O)O)N1

Experiments:
[1] = test system: ovariectomized, estrogen- and progesterone-blocked female rats; experiment: FSH release in vivo after intravenous injection; parameters: species or system rat; settings: for selectivity for FSH release in vivo, result in words: screen of known LHRH's and LHRH analogs, unpublished data; for Change in FSH from baseline, 10 minutes post-injection: saline control -3.85 ± 0.82
Procedure: (§1) Female rats were ovariectomized under anesthesia with isoflurane 4 weeks prior to the in vivo experiments. Three days before blood sampling, each ovariectomized rat was injected subcutaneously with 50 μg estradiol benzoate (Sigma Chemical Co., St. Louis, Mo.) dissolved in 0.1 ml sesame oil, and 25 mg progesterone (Eli Lilly, Indianapolis, Ind.) dissolved in 0.5 ml sesame oil. One day prior to testing, each animal was implanted with a jugular-atrial catheter. On the morning of testing, polyethylene tubing (PE-50) was connected to the distal end of the jugular-atrial catheter on the rat's dorsum to facilitate blood sampling and intravenous injection. Animals were acclimatized one hour before initial blood samples were taken. Heparinized blood samples ([…]) were collected just before, and at 10, 30, and 60 minutes after injection of 0.5 ml isotonic saline or l-LHRH-III (10 or 100 pmole) in 0.5 ml isotonic saline. After removal of each blood sample, an equal volume of isotonic saline was administered to maintain blood volume.

[2] = test system: hemi-anterior pituitaries of adult male rats; experiment: FSH release in vitro from incubated hemi-anterior pituitaries (RIA of medium); assay type: cell-based, rat; settings: for FSH: n = 6
Procedure: (§2) After acclimatization for 5 or more days in the vivarium, male rats were killed by decapitation. Following removal of the posterior lobe, the anterior pituitary (AP) was bisected longitudinally, and each AP was incubated in a tube containing 0.5 ml Krebs-Ringer bicarbonate (5 mM ascorbic acid; pH 7.4) buffer (KRB) in an atmosphere of 95% O2 /5% CO2 in a Dubnoff shaker (50 cycles per min) for a period of 60 min. Following this pre-incubation period, the APs were incubated for 3 hr in fresh KRB buffer alone (control), or in KRB containing one of various concentrations of synthetic mammalian (m)-LHRH, l-LHRH-III, l-LHRH-I, chicken (c)-LHRH-II, or salmon (s)-LHRH. The medium was then aspirated, and was stored frozen at -20° C. until radio-immunoassays (RIA) for FSH and LH were conducted. FSH and LH were measured using kits supplied by the National Institute of Arthritis Digestive Diabetes and Kidney Disease; hormone values were expressed in terms of NIH-rFSH-RP-2 and NIH-rLH-RP-3 standards. The experiments were repeated twice. The inter- and intra-assay coefficients of variation for FSH assays were 7.5% and 5.2%, respectively; and were 6.5% and 4.8% for LH assays.

[3] = test system: hemi-anterior pituitaries of adult male rats; experiment: LH release in vitro from incubated hemi-anterior pituitaries (RIA of medium); assay type: cell-based, rat; settings: for LH: n = 6
Procedure: as §2

[4] = test system: Petromyzon marinus (lamprey) ovaries; settings: Sower et al., 1993; cited from earlier work
[5] = test system: ovariectomized, estrogen- and progesterone-blocked female rats; experiment: LH release in vivo after intravenous injection; parameters: species or system rat; settings: for Change in LH from baseline, 10 minutes post-injection: saline control -0.070 ± 0.122
Procedure: as §1

[6] = Table 4 experiment, 10^-6 M, KRB control 157.5 ± 13.2
[7] = Table 4 experiment, 10^-7 M, KRB control 157.5 ± 13.2
[8] = Table 4 experiment, 10^-8 M, KRB control 157.5 ± 13.2
[9] = Table 5 experiment, 10^-6 M, KRB control 149.3 ± 17.0
[10] = Table 5 experiment, 10^-7 M, KRB control 149.3 ± 17.0
[11] = Table 5 experiment, 10^-8 M, KRB control 149.3 ± 17.0

NC(=O)CNC(=O)[C@@H]1CCCN1C(=O)[C@H](Cc1ccc(O)cc1)NC(=O)[C@H](Cc1c[nH]c2ccccc12)NC(=O)CNC(=O)[C@H](Cc1c[nH]cn1)NC(=O)[C@H](CO)NC(=O)[C@H](Cc1c[nH]c2ccccc12)NC(=O)[C@H](Cc1c[nH]cn1)NC(=O)[C@@H]1CCC(=O)N1 [c-LHRH-II, pGlu-His-Trp-Ser-His-G1y-Trp-Tyr-Pro-Gly-NH2] ([pGlu]HWSHGWYPG-NH2)
selectivity for FSH release in vivo, result in words [1]: slight selectivity for FSH release
selectivity for FSH release in vivo, result in words ([1]; listed as chicken (c) LHRH-II): slightly preferential FSH-releasing activity in vivo
FSH release in vitro, result in words [2]: only significantly increased FSH release at the highest concentration tested (10^-6 M)
FSH [2, 6]: 263.7 ± 17.8 ng/mL
FSH [2, 7]: 209.3 ± 44.0 ng/mL
FSH [2, 8]: 123.7 ± 18.0 ng/mL
FSH release in vitro, result in words ([2]; listed as chicken LHRH-II): low potency, and lacked specificity for FSH release
LH release in vitro, result in words [3]: equivalent LH-releasing activity to that of m-LHRH
LH [3, 9]: 239.0 ± 31.7 ng/mL
LH [3, 10]: 216.3 ± 17.7 ng/mL
LH [3, 11]: 199.3 ± 13.6 ng/mL
LH release in vitro, result in words ([3]; listed as Chicken (c) LHRH-II): stimulated LH release at doses from 10^-8 to 10^-6 M

NCCCC[C@H](NC(=O)[C@H](Cc1c[nH]c2ccccc12)NC(=O)[C@H](CC(=O)O)NC(=O)[C@H](Cc1c[nH]cn1)NC(=O)[C@H](CO)NC(=O)[C@H](Cc1c[nH]c2ccccc12)NC(=O)[C@H](Cc1c[nH]cn1)NC(=O)[C@@H]1CCC(=O)N1)C(=O)N1CCC[C@H]1C(=O)NCC(N)=O [l-LHRH-III, pGlu-His-Trp-Ser-His-Asp-Trp-Lys-Pro-Gly-NH2]
estradiol and progesterone release from ovaries [4]: stimulated estradiol and progesterone release
release of FSH versus LH in vivo, result in words ([1]; 10 pmole and 100 pmole): caused the release of FSH in vivo, but not LH
plasma FSH after injection versus saline control, result in words ([1]; 10 pmole intravenous): highly significant increase in plasma FSH 10 minutes after injection, an effect that vanished by 30 minutes post-injection; also recorded: increase in FSH in vivo (P<0.01) within ten minutes
Change in FSH from baseline, 10 minutes post-injection ([1]; 10 pmole intravenous, n = 6): -0.75 ± 0.37 ng/mL
plasma FSH after injection versus saline control, result in words ([1]; 100 pmole intravenous): slightly greater effect at 10 minutes that was maintained 30 minutes after injection
Change in FSH from baseline, 10 minutes post-injection ([1]; 100 pmole intravenous, n = 7): -0.43 ± 0.61 ng/mL
FSH release in vitro, result in words [2]: approximately equipotent toward releasing FSH; also recorded: caused FSH release in a dose-related fashion
FSH ([2]; Table 2, 10^-4 M, 3 hr incubation, KRB control 97.7 ± 20.4): 368.6 ± 40.9 ng/mL
FSH ([2]; Table 2, 10^-5 M, 3 hr incubation, KRB control 97.7 ± 20.4): 283.0 ± 60.8 ng/mL
FSH ([2]; Table 2, 10^-6 M, 3 hr incubation, KRB control 97.7 ± 20.4): 278.2 ± 40.9 ng/mL
FSH ([2]; Table 2, 10^-7 M, 3 hr incubation, KRB control 97.7 ± 20.4): 213.0 ± 17.9 ng/mL
FSH ([2]; Table 2, 10^-8 M, 3 hr incubation, KRB control 97.7 ± 20.4): 255.7 ± 42.4 ng/mL
FSH ([2]; Table 2, 10^-9 M, 3 hr incubation, KRB control 97.7 ± 20.4): 228.3 ± 52.5 ng/mL
MEC for statistically significant FSH release relative to c-LHRH-II ([2]; Table 4 experiment): two orders of magnitude lower
FSH [2, 6]: 215.0 ± 38.0 ng/mL
FSH [2, 7]: 203.2 ± 16.4 ng/mL
FSH [2, 8]: 249.3 ± 31.3 ng/mL
FSH ([2]; Table 4 experiment, 10^-9 M, KRB control 157.5 ± 13.2): 196.3 ± 21.2 ng/mL
minimal effective concentration (MEC) for FSH release ([2]; lowest concentration tested 10^-9 M): ≤ 10^-9 M
concentration of maximal effect on FSH release ([2]; release levelled off through 10^-4 M): about 10^-6 M
LH ([3]; Table 3, 10^-4 M, 3 hr incubation, KRB control 139.3 ± 16.9): 236.6 ± 19.3 ng/mL
LH ([3]; Table 3, 10^-5 M, 3 hr incubation, KRB control 139.3 ± 16.9): 202.9 ± 31.2 ng/mL
LH ([3]; Table 3, 10^-6 M, 3 hr incubation, KRB control 139.3 ± 16.9): 233.6 ± 33.8 ng/mL
LH ([3]; Table 3, 10^-7 M, 3 hr incubation, KRB control 139.3 ± 16.9): 179.9 ± 28.4 ng/mL
LH ([3]; Table 3, 10^-8 M, 3 hr incubation, KRB control 139.3 ± 16.9): 165.7 ± 26.6 ng/mL
LH ([3]; Table 3, 10^-9 M, 3 hr incubation, KRB control 139.3 ± 16.9): 171.8 ± 27.3 ng/mL
LH [3, 9]: 176.0 ± 9.3 ng/mL
LH [3, 10]: 182.7 ± 13.7 ng/mL
LH [3, 11]: 163.2 ± 6.5 ng/mL
LH ([3]; Table 5 experiment, 10^-9 M, KRB control 149.3 ± 17.0): 158.7 ± 10.2 ng/mL
Change in LH from baseline, 10 minutes post-injection ([5]; 10 pmole intravenous, n = 6): -0.022 ± 0.078 ng/mL
plasma LH after injection versus saline control, result in words ([5]; 10 pmole or 100 pmole intravenous, 10, 30, 60 minutes): no significant increase in LH
Change in LH from baseline, 10 minutes post-injection ([5]; 100 pmole intravenous, n = 7): 0.097 ± 0.077 ng/mL

CC(C)C[C@H](NC(=O)CNC(=O)[C@H](Cc1ccc(O)cc1)NC(=O)[C@H](CO)NC(=O)[C@H](Cc1c[nH]c2ccccc12)NC(=O)[C@H](Cc1c[nH]cn1)NC(=O)[C@@H]1CCC(=O)N1)C(=O)N[C@@H](CCCNC(=N)N)C(=O)N1CCC[C@H]1C(=O)NCC(N)=O [m-LHRH, pGlu-His-Trp-Ser-Tyr-Gly-Leu-Arg-Pro-Gly-NH2]
FSH release in vitro, result in words [2]: approximately equipotent toward releasing FSH; also recorded: equivalent levels of FSH release at the two concentrations tested
FSH ([2]; Table 2, 2 × 10^-8 M, 3 hr incubation, KRB control 97.7 ± 20.4): 257.5 ± 42.4 ng/mL
FSH ([2]; Table 2, 4 × 10^-9 M, 3 hr incubation, KRB control 97.7 ± 20.4): 218.5 ± 35.7 ng/mL
FSH ([2]; Table 4 experiment, 2 × 10^-8 M, KRB control 157.5 ± 13.2): 320.5 ± 42.6 ng/mL
LH release in vitro, result in words [3]: dose-related stimulatory effect on LH release, and was active at the lowest concentration tested (4×10^-9 M)
LH ([3]; Table 3, 2 × 10^-8 M, 3 hr incubation, KRB control 139.3 ± 16.9): 262.0 ± 36.1 ng/mL
LH ([3]; Table 3, 4 × 10^-9 M, 3 hr incubation, KRB control 139.3 ± 16.9): 183.1 ± 27.0 ng/mL
LH ([3]; Table 5 experiment, 2 × 10^-8 M, KRB control 149.3 ± 17.0): 214.7 ± 30.3 ng/mL

CC(C)C[C@H](NC(=O)[C@H](Cc1c[nH]c2ccccc12)NC(=O)CNC(=O)[C@H](Cc1ccc(O)cc1)NC(=O)[C@H](CO)NC(=O)[C@H](Cc1c[nH]c2ccccc12)NC(=O)[C@H](Cc1c[nH]cn1)NC(=O)[C@@H]1CCC(=O)N1)C(=O)N1CCC[C@H]1C(=O)NCC(N)=O [s-LHRH, pGlu-His-Trp-Ser-Tyr-Gly-Trp-Leu-Pro-Gly-NH2] ([pGlu]HWSYGWLPG-NH2)
FSH [2, 6]: 203.2 ± 39.2 ng/mL
FSH [2, 7]: 233.0 ± 37.4 ng/mL
FSH release in vitro, result in words ([2]; listed as Salmon (s)-LHRH): stimulated the release of both FSH and LH
FSH release in vitro, result in words ([2]; listed as Salmon LHRH): low potency, and lacked specificity for FSH release
LH release in vitro, result in words [3]: stimulated the release of both FSH and LH
LH [3, 9]: 186.2 ± 13.6 ng/mL
LH [3, 10]: 230.8 ± 38.8 ng/mL
